The values below come from ChEMBL document CHEMBL1201862, “PubChem BioAssay data set” (2004).

Some test systems named below: 786-0; CCRF-CEM; COLO 205; EKVX; HCT-116; IGROV-1; M14; NCI-H460; NCI-H522; NCI/ADR-RES; OVCAR-4; OVCAR-8; PC-3; SK-MEL-28; SK-OV-3; SNB-75; U-251; HL-60; RPMI-8226; RXF 393.
Common to all, as to assay: growth of human tumour cells (NCI), 48 h

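Test compounds were applied to cells in 96-well plates for 48 hours at 5 doses. At the GI50, growth is halved.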 Activity calls are given as the source filed them. Rule as the data show it: active = GI50 up to about 1.1 µM and inactive = higher.

As to `CC(C)c1ccc2nc3ccc(C(=O)NCCN4CCN(c5ccccc5)CC4)cn3c(=O)c2c1`, the GI50 in the test with 786-0 was 3.21 µM (inactive); in the test with CCRF-CEM it was 2.24 µM (inactive); with COLO 205, 3.33 µM (inactive); in the test with EKVX, > 100 µM (inactive); in the test with HCT-116, 5.66 µM (inactive); in the test with IGROV-1 it was > 100 µM (inactive). The GI50 in the test on M14 was 2.87 µM (inactive); in the test on NCI-H460 it was 4.3 µM (inactive); in the test on NCI-H522, 5.58 µM (inactive); with NCI/ADR-RES, 3.57 µM (inactive); in the test with OVCAR-4, > 100 µM (inactive); with OVCAR-8 it was 4.33 µM (inactive). In addition, the GI50 in the test on PC-3 was 2.37 µM (inactive); in the test on SK-MEL-28, 2.82 µM (inactive); in the test with SK-OV-3, > 100 µM (inactive); with SNB-75 it was 1.89 µM (inactive); with U-251, > 100 µM (inactive).

As to `COc1ccc2oc(=O)c3c(c2c1C)OC(C)(C)C=C3`, the GI50 in the test with 786-0, with CCRF-CEM, with COLO 205, with EKVX, in the test on HCT-116 and in the test on HL-60 was > 100 µM (inactive) throughout. Besides, the GI50 with IGROV-1, in the test with M14, in the test with NCI-H460, in the test on NCI-H522, in the test with NCI/ADR-RES and with OVCAR-8 was > 100 µM (inactive) throughout. In addition, the GI50 in the test with PC-3, with RPMI-8226, in the test on SK-MEL-28, with SK-OV-3, with SNB-75 and with U-251 was > 100 µM (inactive) in each case.

Regarding `CCOC(=O)c1cnc(-n2[nH]c3c(c2=O)CCCC3)[nH]c1=O`, the GI50 is 60 µM (inactive) in the test on 786-0; 28.8 µM (inactive) in the test on CCRF-CEM; 26.2 µM (inactive) with COLO 205; 80.4 µM (inactive) in the test with EKVX; 36.4 µM (inactive) in the test on HCT-116; 28.1 µM (inactive) in the test with HL-60. Further, the GI50 in the test with IGROV-1 is > 100 µM (inactive); in the test with M14 it was 36.4 µM (inactive); in the test with NCI-H460, 45.5 µM (inactive); in the test on NCI-H522, 52.4 µM (inactive); with NCI/ADR-RES it was 34.8 µM (inactive); in the test on OVCAR-4, 57.5 µM (inactive). In addition, the GI50 was 37.5 µM (inactive) in the test on OVCAR-8; 57.4 µM (inactive) in the test with PC-3; 52.7 µM (inactive) in the test on RPMI-8226; 20.9 µM (inactive) with SK-MEL-28; 80.5 µM (inactive) with SK-OV-3; 39.7 µM (inactive) in the test on U-251.

Turning to `O=[N+]([O-])c1ccc(-c2cn(-c3ccc(Cl)cc3)cn2)cc1`, the GI50 in the test on 786-0 was 16.6 µM (inactive); in the test on CCRF-CEM, > 100 µM (inactive); in the test with COLO 205 it was > 100 µM (inactive); in the test with EKVX it was 32.7 µM (inactive); in the test with HCT-116, 27.4 µM (inactive); in the test on HL-60 it was > 100 µM (inactive). Moreover, the GI50 with IGROV-1 is 41.6 µM (inactive); with M14 it was > 100 µM (inactive); with NCI-H460 it was 18.5 µM (inactive); with NCI-H522 it was 3.76 µM (inactive); with NCI/ADR-RES, 36.6 µM (inactive); with OVCAR-8 it was 36.6 µM (inactive). Moreover, the GI50 in the test on PC-3 is > 100 µM (inactive); in the test with RPMI-8226 it was 89.5 µM (inactive); with SK-MEL-28, > 100 µM (inactive); in the test with SK-OV-3, 11.6 µM (inactive); in the test on SNB-75, 8.57 µM (inactive); in the test with U-251 it was 31.8 µM (inactive).

Turning to `CC1(C)CCC(C)(C)C1C(=O)NC(O)C(=O)O` (configuration not stated), the GI50 in the test on 786-0, in the test with CCRF-CEM, in the test with COLO 205, in the test with EKVX, in the test with HCT-116 and in the test with HL-60 was > 100 µM (inactive) throughout. Moreover, the GI50 with IGROV-1, in the test with M14, in the test on NCI-H460, in the test on NCI/ADR-RES, in the test on OVCAR-8 and in the test with PC-3 was > 100 µM (inactive) each time. In addition, the GI50 in the test on RPMI-8226, in the test on SK-MEL-28, with SK-OV-3, with SNB-75 and in the test on U-251 was > 100 µM (inactive) throughout.

As to `Cc1nc2ccccc2c(=O)n1/N=C/c1ccc(N(C)C)cc1`, the GI50 is 71.4 µM (inactive) in the test on 786-0; > 100 µM (inactive) with CCRF-CEM; > 100 µM (inactive) in the test on COLO 205; > 100 µM (inactive) in the test on EKVX; > 100 µM (inactive) in the test with HCT-116; > 100 µM (inactive) in the test on HL-60. In addition, the GI50 in the test with IGROV-1 is > 100 µM (inactive); with M14, > 100 µM (inactive); in the test with NCI-H460, > 100 µM (inactive); in the test on NCI-H522, 15.6 µM (inactive); in the test with NCI/ADR-RES, 86.9 µM (inactive); in the test with OVCAR-4, > 100 µM (inactive). Moreover, the GI50 with OVCAR-8 was 53.5 µM (inactive); in the test on PC-3, > 100 µM (inactive); with RPMI-8226, 4.24 µM (inactive); in the test with SK-MEL-28, > 100 µM (inactive); in the test on SK-OV-3, 83.6 µM (inactive); with SNB-75 it was 15.4 µM (inactive). In the test on U-251, the GI50 was 45 µM (inactive).

Take `O=C(Cn1c2ccc(Br)cc2c2nc3ccccc3nc21)NNC(=O)NC1CCCCC1`: the GI50 with 786-0 is 44.3 µM (inactive); in the test with CCRF-CEM it was 26.7 µM (inactive); in the test with COLO 205, 86.9 µM (inactive); in the test with EKVX, 65.8 µM (inactive); with HCT-116, 57.3 µM (inactive); in the test on M14 it was 40.3 µM (inactive). For the same compound, the GI50 is 47.8 µM (inactive) in the test with NCI-H460; 72.8 µM (inactive) in the test with NCI-H522; 13.8 µM (inactive) in the test with OVCAR-4; 35.9 µM (inactive) in the test on OVCAR-8; 37.7 µM (inactive) with PC-3; > 100 µM (inactive) in the test with RPMI-8226. Also, the GI50 was 78.2 µM (inactive) in the test on RXF 393; 45.2 µM (inactive) with SK-MEL-28; 50.7 µM (inactive) in the test with SK-OV-3; 23.2 µM (inactive) with SNB-75; 30.1 µM (inactive) in the test with U-251.

As to `O=C1C=CN(C2OC(CO)C(O)C2O)C(=O)C1` (configuration not stated), the GI50 in the test on 786-0 is 13.3 µM (inactive); in the test on CCRF-CEM, 6.87 µM (inactive); with COLO 205 it was 27.1 µM (inactive); in the test with EKVX, > 2500 µM (inactive); with HCT-116 it was 1.51 µM (inactive); with HL-60, 9.46 µM (inactive). Also, the GI50 in the test with IGROV-1 was 223 µM (inactive); in the test on M14, 231 µM (inactive); with NCI-H460, 0.942 µM (active); with PC-3 it was 155 µM (inactive); with RPMI-8226, 5.47 µM (inactive); with RXF 393, 372 µM (inactive). For the same compound, the GI50 with SK-OV-3 is 1320 µM (inactive); with SNB-75, 838 µM (inactive).

In the case of `CN1/C(=C\N=O)C(C)(C)N(O)C1(C)C`, the GI50 in the test with 786-0, in the test on CCRF-CEM, in the test on COLO 205, with EKVX, in the test on HCT-116 and in the test with HL-60 was > 100 µM (inactive) in each case. Also, the GI50 with IGROV-1, in the test with M14, with NCI-H460, in the test on NCI-H522, in the test on NCI/ADR-RES and with OVCAR-4 was > 100 µM (inactive) each time. Besides, the GI50 in the test on OVCAR-8, in the test with PC-3, in the test on RPMI-8226, in the test with SK-MEL-28, in the test on SK-OV-3 and with SNB-75 was > 100 µM (inactive) in each case. Besides, the GI50 with U-251 was > 100 µM (inactive).

For `C=C[C@]1(C)CC(O)C2C(=C)C(=O)OC2[C@H]1C(=C)C=O` (some centres not stated), the GI50 with 786-0 is 1.91 µM (inactive); in the test with CCRF-CEM, 0.925 µM (active); with COLO 205, 7.23 µM (inactive); in the test on EKVX it was 15 µM (inactive); in the test with HCT-116, 1.64 µM (inactive); with HL-60 it was 0.893 µM (active). In addition, the GI50 in the test on IGROV-1 is 8.87 µM (inactive); with M14 it was 2.08 µM (inactive); in the test with NCI-H460, 14.5 µM (inactive); in the test on NCI-H522, 0.966 µM (active); in the test on OVCAR-4, 7.93 µM (inactive); in the test with OVCAR-8 it was 2.16 µM (inactive). The GI50 in the test with PC-3 is 2.87 µM (inactive); with RPMI-8226, 0.859 µM (active); in the test with RXF 393, 2.07 µM (inactive); with SK-MEL-28, 1.3 µM (inactive); with SK-OV-3, 25.8 µM (inactive); in the test on SNB-75, 18.6 µM (inactive). Further, the GI50 in the test with U-251 was 9.04 µM (inactive).

For `COc1cc2c(c(OC)c1)[C@H](C)N(Cc1ccccc1)C(C)C2` (some centres not stated), the GI50 with 786-0 was 36.1 µM (inactive); in the test with CCRF-CEM, 36.6 µM (inactive); in the test on COLO 205 it was 29.5 µM (inactive); in the test on EKVX it was > 100 µM (inactive); in the test with HCT-116 it was 14.7 µM (inactive); in the test on HL-60, 4.88 µM (inactive). For the same compound, the GI50 in the test on IGROV-1 is 29.4 µM (inactive); in the test on M14, 17.7 µM (inactive); with NCI-H460, 11 µM (inactive); in the test on NCI-H522, > 100 µM (inactive); in the test with OVCAR-8, 74.1 µM (inactive); in the test with PC-3 it was > 100 µM (inactive). In addition, the GI50 with RPMI-8226 was 21.3 µM (inactive); in the test on SK-MEL-28 it was 30.5 µM (inactive); with SK-OV-3, > 100 µM (inactive); in the test on SNB-75, 41.1 µM (inactive).
